Reference: patent US7048951B1, “Systems and methods for topical treatment with nitric oxide” (Nioxx, LLC, priority 1998, dated 2006)
Where two headings read alike, the source gives them in different places.

Key:
pKa of acids = format: physicochemical
[1] = cited from earlier work
[2] = preservative concentration 0.18% in carbomer gel (propylparaben 0.05% listed in next row)
[3] = preservative concentration 0.01% in carbomer gel
[4] = preservative concentration 0.1% in carbomer gel

Q: With `O=C(O)/C=C\C(=O)O` [Maleic acid] as the compound, how does the “acid strength relative to nitrous acid” value (pKa of acids) read?
A: about 30 times

Q: Which Appearance [1, 2] does the source give for `COC(=O)c1ccc(O)cc1` [Methylparaben] here?
A: Clear

Q: What about the Compatible [1, 2] of the same compound?
A: Yes

Q: Which Appearance [1, 3] does the source give for `O=C([O-])c1ccccc1.[Na+]` [Sodium Benzoate] here?
A: Clear

Q: What about the Compatible [1, 3] of the same compound?
A: Yes

Q: And the Appearance [1, 4]?
A: Cloudy

Q: And the Compatible [1, 4]?
A: No

Q: Which results are given for `C[CH2][Hg][S]c1ccccc1C(=O)[O-].[Na+]` [Thiomersal]?
A: Appearance [1, 3]: Clear; Compatible [1, 3]: Yes; Appearance [1, 4]: Clear; Compatible [1, 4]: Yes

Q: Which results are given for Benzalkonium Chloride?
A: Appearance [1, 3]: Clear; Compatible [1, 3]: Yes; Appearance [1, 4]: Cloudy; Compatible [1, 4]: No
